According to the NIST ThermoML archive (doi:10.1021/je025610o):
± gives the expanded uncertainty stated by the source.

Experiments:
[1] = xn = mol fraction of the nth substance listed; details: 100 kPa, Liquid; for thermal conductivity: Hot wire method
[2] = 100 kPa, Liquid, Capillary tube (Ostwald / Ubbelohde) method

OCCOCCO [diethylene glycol] + O
[1]
Details	mass density [kg/m3]	thermal conductivity [W/m/K]	viscosity [mPa·s]
293.45 K, x1 = 0.5	1111 ± 2	–	22 ± 0.6
294.05 K, x1 = 0.75	1115 ± 2	–	30.4 ± 0.8
294.25 K, x1 = 0.25	1095 ± 2	–	9.79 ± 0.26
294.4 K, x1 = 0.25	–	0.291 ± 0.006	–
295.9 K, x1 = 0.5	–	0.235 ± 0.005	–
296.4 K, x1 = 0.75	–	0.209 ± 0.004	–
312.95 K, x1 = 0.5	1097 ± 2	–	9.64 ± 0.26
313.05 K, x1 = 0.25	1081 ± 2	–	4.88 ± 0.14
313.05 K, x1 = 0.75	1101 ± 2	–	13.3 ± 0.4
322.1 K, x1 = 0.5	–	0.244 ± 0.005	–
323.4 K, x1 = 0.25	–	0.31 ± 0.006	–
323.8 K, x1 = 0.75	–	0.213 ± 0.004	–
332.95 K, x1 = 0.5	1082 ± 2	–	5.03 ± 0.14
333.05 K, x1 = 0.25	1066 ± 2	–	2.76 ± 0.08
333.05 K, x1 = 0.75	1087 ± 2	–	6.75 ± 0.19
347.4 K, x1 = 0.25	–	0.315 ± 0.006	–
347.8 K, x1 = 0.5	–	0.249 ± 0.005	–
349.6 K, x1 = 0.75	–	0.217 ± 0.004	–
352.95 K, x1 = 0.5	1066 ± 2	–	3.01 ± 0.09
353.05 K, x1 = 0.75	1071 ± 2	–	3.9 ± 0.11
353.15 K, x1 = 0.25	1051 ± 2	–	1.76 ± 0.05
371.9 K, x1 = 0.5	–	0.258 ± 0.005	–
373 K, x1 = 0.25	–	0.322 ± 0.007	–
373.2 K, x1 = 0.75	–	0.219 ± 0.004	–
380.05 K, x1 = 0.5	1043 ± 2	–	–
381.45 K, x1 = 0.25	1027 ± 2	–	–
382.55 K, x1 = 0.5	–	–	1.66 ± 0.05
382.55 K, x1 = 0.75	1048 ± 2	–	–
384.95 K, x1 = 0.25	–	–	1.03 ± 0.03
385.05 K, x1 = 0.75	–	–	2 ± 0.06
390.25 K, x1 = 0.5	1035 ± 2	–	–
390.95 K, x1 = 0.75	1042 ± 2	–	–
392.75 K, x1 = 0.25	1017 ± 2	–	–
394.25 K, x1 = 0.5	–	–	1.37 ± 0.04
394.95 K, x1 = 0.75	–	–	1.72 ± 0.05
395.6 K, x1 = 0.5	–	0.257 ± 0.005	–
396 K, x1 = 0.25	–	0.325 ± 0.007	–
396.75 K, x1 = 0.25	–	–	0.912 ± 0.028
396.9 K, x1 = 0.75	–	0.217 ± 0.004	–
405.35 K, x1 = 0.5	1023 ± 2	–	–
406.95 K, x1 = 0.75	1029 ± 2	–	–
409.25 K, x1 = 0.25	1004 ± 2	–	–
409.35 K, x1 = 0.5	–	–	1.12 ± 0.03
410.95 K, x1 = 0.75	–	–	1.35 ± 0.04
413.25 K, x1 = 0.25	–	–	0.743 ± 0.023
421.5 K, x1 = 0.25	–	0.33 ± 0.007	–
421.6 K, x1 = 0.75	–	0.222 ± 0.005	–
422 K, x1 = 0.5	–	0.256 ± 0.005	–
424.25 K, x1 = 0.5	1006 ± 2	–	–
424.65 K, x1 = 0.75	1014 ± 2	–	–
426.35 K, x1 = 0.25	987.6 ± 2.2	–	–
428.25 K, x1 = 0.5	–	–	0.865 ± 0.026
428.65 K, x1 = 0.75	–	–	1.05 ± 0.03
430.35 K, x1 = 0.25	–	–	0.61 ± 0.019
441.65 K, x1 = 0.25	973.3 ± 2.2	–	–
443.05 K, x1 = 0.5	988.2 ± 2.3	–	–
443.65 K, x1 = 0.75	996.3 ± 2.3	–	–
445.65 K, x1 = 0.25	–	–	0.521 ± 0.017
446.8 K, x1 = 0.75	–	0.213 ± 0.004	–
447 K, x1 = 0.5	–	0.253 ± 0.005	–
447.05 K, x1 = 0.5	–	–	0.707 ± 0.022
447.5 K, x1 = 0.25	–	0.328 ± 0.007	–
447.65 K, x1 = 0.75	–	–	0.838 ± 0.026

OCCOCCOCCO [triethylene glycol]
[2]
Details	viscosity [mPa·s]
299.65 K	35.1 ± 0.7
313.05 K	19.5 ± 0.4
333.1 K	9.66 ± 0.21
353.05 K	5.55 ± 0.12
373.5 K	3.41 ± 0.07
393.3 K	2.36 ± 0.05
413.25 K	1.71 ± 0.04
428.1 K	1.39 ± 0.03

OCCOCCOCCO [triethylene glycol] + O
[1]
Details	mass density [kg/m3]	thermal conductivity [W/m/K]	viscosity [mPa·s]
293.85 K, x1 = 0.25	1108 ± 2	–	19.2 ± 0.5
294.05 K, x1 = 0.5	1120 ± 2	–	36 ± 0.9
294.15 K, x1 = 0.75	1122 ± 2	–	43.2 ± 1.1
295 K, x1 = 0.25	–	0.258 ± 0.005	–
295.5 K, x1 = 0.5	–	0.21 ± 0.004	–
295.5 K, x1 = 0.75	–	0.195 ± 0.004	–
313.05 K, x1 = 0.25	1093 ± 2	–	8.6 ± 0.2
313.05 K, x1 = 0.5	1105 ± 2	–	15.2 ± 0.4
313.05 K, x1 = 0.75	1108 ± 2	–	18.3 ± 0.5
323.8 K, x1 = 0.25	–	0.268 ± 0.005	–
324.6 K, x1 = 0.5	–	0.216 ± 0.004	–
327.1 K, x1 = 0.75	–	0.197 ± 0.004	–
333.05 K, x1 = 0.25	1078 ± 2	–	4.52 ± 0.13
333.05 K, x1 = 0.5	1089 ± 2	–	7.52 ± 0.2
333.05 K, x1 = 0.75	1092 ± 2	–	9.04 ± 0.24
349.1 K, x1 = 0.25	–	0.275 ± 0.006	–
349.5 K, x1 = 0.5	–	0.219 ± 0.004	–
349.8 K, x1 = 0.75	–	0.201 ± 0.004	–
353.05 K, x1 = 0.25	1061 ± 2	–	2.7 ± 0.08
353.05 K, x1 = 0.5	1073 ± 2	–	4.32 ± 0.12
353.05 K, x1 = 0.75	1076 ± 2	–	5.19 ± 0.15
372.7 K, x1 = 0.75	–	0.202 ± 0.004	–
373.6 K, x1 = 0.5	–	0.22 ± 0.005	–
373.8 K, x1 = 0.25	–	0.28 ± 0.006	–
379.65 K, x1 = 0.25	1039 ± 2	–	–
382.15 K, x1 = 0.25	–	–	1.5 ± 0.04
384.25 K, x1 = 0.5	1046 ± 2	–	–
384.95 K, x1 = 0.75	1049 ± 2	–	–
386.75 K, x1 = 0.5	–	–	2.09 ± 0.06
387.45 K, x1 = 0.75	–	–	2.41 ± 0.07
389.35 K, x1 = 0.25	1030 ± 2	–	–
391.35 K, x1 = 0.5	1041 ± 2	–	–
392.55 K, x1 = 0.75	1044 ± 2	–	–
393.35 K, x1 = 0.25	–	–	1.27 ± 0.04
395.35 K, x1 = 0.5	–	–	1.84 ± 0.05
396 K, x1 = 0.5	–	0.221 ± 0.005	–
396.4 K, x1 = 0.25	–	0.285 ± 0.006	–
396.55 K, x1 = 0.75	–	–	2.11 ± 0.06
397.6 K, x1 = 0.75	–	0.2 ± 0.004	–
405.75 K, x1 = 0.25	1016 ± 2	–	–
407.45 K, x1 = 0.75	1032 ± 2	–	–
407.85 K, x1 = 0.5	1028 ± 2	–	–
409.75 K, x1 = 0.25	–	–	1 ± 0.03
411.45 K, x1 = 0.75	–	–	1.68 ± 0.05
411.85 K, x1 = 0.5	–	–	1.43 ± 0.04
421.3 K, x1 = 0.25	–	0.292 ± 0.006	–
421.9 K, x1 = 0.5	–	0.221 ± 0.005	–
422.5 K, x1 = 0.75	–	0.198 ± 0.004	–
423.35 K, x1 = 0.25	999.2 ± 2.2	–	–
425.35 K, x1 = 0.75	1016 ± 2	–	–
425.95 K, x1 = 0.5	1011 ± 2	–	–
427.35 K, x1 = 0.25	–	–	0.813 ± 0.025
429.35 K, x1 = 0.75	–	–	1.3 ± 0.04
429.95 K, x1 = 0.5	–	–	1.11 ± 0.03
442.45 K, x1 = 0.25	980 ± 2	–	–
443.45 K, x1 = 0.5	995 ± 2	–	–
444.55 K, x1 = 0.75	999.5 ± 2.3	–	–
445 K, x1 = 0.25	–	0.282 ± 0.006	–
446.45 K, x1 = 0.25	–	–	0.662 ± 0.021
446.5 K, x1 = 0.75	–	0.195 ± 0.004	–
447.45 K, x1 = 0.5	–	–	0.903 ± 0.028
448.3 K, x1 = 0.5	–	0.216 ± 0.004	–
448.55 K, x1 = 0.75	–	–	1.03 ± 0.03
